Data from patent US10696972B2, “Method for improving learning” (St. Jude Children's Research Hospital, Inc., priority 2015, dated 2020).

Legend:
A1R mRNA = test: Cortical map plasticity in the ACx after passive tone exposure, A1R shRNA knock-down; format: in vivo, mouse; conditions: adult WT mice, shRNA injected into auditory thalamus (MGv), passive exposure to a 9.8-kHz tone
Experimental: (§1) Mice were housed in ventilated sound-proof chambers with ad libitum food and water and maintained on a 12:12 hour light:dark cycle. Mice were exposed to continuous sound stimulation for 5 to 14 days, consisting of repeated trains of tones. Each train consisted of 5 tones delivered at 5 Hz. A pure tone of certain frequencies (7 kHz, 7.9 kHz, 9.8 kHz, 11.4 kHz, or 16.4 kHz) was used. The tone duration was 50 ms with 5-ms cosine onset/offset ramps at 70-dB sound pressure level (SPL). Trains were separated by 1 s. Naïve (nonexposed) mice were housed in a similar fashion but received no sound stimulation.
Mice were anesthetized with sodium pentobarbital (50 mg/kg) and chlorprothixene (0.2 mg) followed by supplemental doses of sodium pentobarbital (15-25 mg/kg supplements as needed). Spike responses to sound stimulation were recorded from the primary (A1) ACx (depth, 350-420 μm from the pial surface) with Epoxylite-coated tungsten microelectrodes (2.0 MΩ at 1 kHz; FHC, Brunswick, Me.). Frequency response areas (FRAs) were measured with randomly presented tone pips of varying frequency (4.0-44.6 kHz in 0.1-octave increments, 20-ms duration, 5-ms raised cosine onset/offset ramps, 500-ms intertone interval) and level (0- to 70-dB SPL in 10-dB increments). Tones were generated by an electrostatic speaker [Tucker-Davis Technologies (TDT), Alachua, Fla.], which was placed 10 cm from the contralateral ear of the mouse. The ipsilateral ear was plugged with agar. Spike responses to tone pips were amplified with an RA4PA fiber optic preamplifier, filtered (high pass=250 Hz, low pass=5000 Hz), and digitized with an RZ6 real-time processor (TDT). The threshold for spike detection was set at a signal-to-noise ratio of 3:1. TDT System 3 software (OpenEx) controlled both sound stimulus generation and response acquisition and was used for data storage. Cortical maps in the A1 were generated from FRAs measured at 30 to 40 sites per mouse, each separated by 50 to 100 μm. FRAs were analyzed with TDT System 3 software (Open Explorer) for characteristic frequencies (CFs) collated in bins of 0.22 octaves. […]

Nt5e = test: Cortical map plasticity in the ACx after passive tone exposure, Nt5e shRNA knock-down; format: in vivo, mouse; conditions: mature WT mice, shRNA injected into auditory thalamus, exposed to 11.4 kHz
Experimental: as §1
Mice were anesthetized with sodium pentobarbital (50 mg/kg) and chlorprothixene (0.2 mg) followed by supplemental doses of sodium pentobarbital (15-25 mg/kg supplements as needed). Spike responses to sound stimulation were recorded from the primary (A1) ACx (depth, 350-420 μm from the pial surface) with Epoxylite-coated tungsten microelectrodes (2.0 MΩ at 1 kHz; FHC, Brunswick, Me.). Frequency response areas (FRAs) were measured with randomly presented tone pips of varying frequency (4.0-44.6 kHz in 0.1-octave increments, 20-ms duration, 5-ms raised cosine onset/offset ramps, 500-ms intertone interval) and level (0- to 70-dB SPL in 10-dB increments). […] Cortical maps in the A1 were generated from FRAs measured at 30 to 40 sites per mouse, each separated by 50 to 100 μm. […]

Substance | ACx map plasticity (A1R mRNA) | percentage of sites with a CF of 11.4 kHz compared to naïve mice (Nt5e)
scrambled (control) shRNA: scrambled control shRNA; coding DNA 5′-TACGTCCAAGGTCGGGCAGGAAGA-3′ (SEQ ID NO: 9) [reference compound] | no cortical map plasticity | 
A1R shRNA (789): shRNA against A1R mRNA, lentivector; coding DNA 5′-CCAGAAACCCAGCATCCTCATCTACATTG-3′ (SEQ ID NO: 11) | sufficient to induce ACx map plasticity | 
Nt5e shRNA (1264): shRNA against Nt5e, lentivector; coding DNA 5′-ACATTTGACCTCGTCCAATTAAAAGGGTC-3′ (SEQ ID NO: 12) |  | significantly larger percentage of sites with a CF of 11.4 kHz
Nt5e shRNA (1366): shRNA against Nt5e, lentivector; coding DNA 5′-GGAATCCATGTGGTGTACGATATTAACCG-3′ (SEQ ID NO: 13) |  | significantly larger percentage of sites with a CF of 11.4 kHz
A1R shRNA (123): shRNA against A1R mRNA, lentivector; coding DNA 5′-CGATGCTACCTTCTGCTTCATCGTATCCC-3′ (SEQ ID NO: 10) | sufficient to induce ACx map plasticity | 
